Measured values as given in ChEMBL document CHEMBL3045858, “Weed control and sesame (Sesamum indicum L.) response to preplant incorporated herbicides and method of incorporation” (Crop Prot, 2007).

Tests used:
Sesamum indicum [1] = experiment: Phytotoxicity against Sesamum indicum (sesame) plant assessed as yield at 0.84 kg/ha applied using mixing wheel cultivator (reference value: 333 kg/ha); format: organism-based; conditions: in vivo, other
Sesamum indicum [2] = experiment: Phytotoxicity against Sesamum indicum (sesame) plant assessed as yield at 0.42 kg/ha applied using mixing wheel cultivator (reference value: 333 kg/ha); format: organism-based; conditions: in vivo, other
Urochloa platyphylla [3] = experiment: Herbicidal activity against Urochloa platyphylla at 1.68 kg/ha applied using mixing wheel cultivator; format: functional
Urochloa platyphylla [4] = experiment: Herbicidal activity against Urochloa platyphylla at 0.42 kg/ha applied using mixing wheel cultivator; format: functional
Sesamum indicum [5] = experiment: Phytotoxicity against Sesamum indicum (sesame) plant assessed as sesame stand at 1.68 kg/ha applied using mixing wheel cultivator relative to control; format: organism-based; conditions: in vivo, other
Sesamum indicum [6] = experiment: Phytotoxicity against Sesamum indicum (sesame) plant assessed as sesame stand at 0.84 kg/ha applied using mixing wheel cultivator relative to control; format: organism-based; conditions: in vivo, other
Sesamum indicum [7] = experiment: Phytotoxicity against Sesamum indicum (sesame) plant assessed as sesame stand at 0.42 kg/ha applied using mixing wheel cultivator relative to control; format: organism-based; conditions: in vivo, other
Sesamum indicum [8] = experiment: Phytotoxicity against Sesamum indicum (sesame) plant assessed as yield at 1.68 kg/ha applied using mixing wheel cultivator (reference value: 333 kg/ha); format: organism-based; conditions: in vivo, other
Amaranthus tuberculatus [9] = experiment: Herbicidal activity against Amaranthus tuberculatus at 0.42 kg/ha applied using mixing wheel cultivator; format: functional
Sesamum indicum [10] = experiment: Phytotoxicity against Sesamum indicum (sesame) plant assessed as stunt in growth at 0.42 kg/ha applied using mixing wheel cultivator (reference value: 0%); format: organism-based; conditions: in vivo, other
Amaranthus tuberculatus [11] = experiment: Herbicidal activity against Amaranthus tuberculatus at 0.84 kg/ha applied using mixing wheel cultivator; format: functional
Sesamum indicum [12] = experiment: Phytotoxicity against Sesamum indicum (sesame) plant assessed as stunt in growth at 1.68 kg/ha applied using mixing wheel cultivator (reference value: 0%); format: organism-based; conditions: in vivo, other
Amaranthus tuberculatus [13] = experiment: Herbicidal activity against Amaranthus tuberculatus at 1.68 kg/ha applied using mixing wheel cultivator; format: functional
Sesamum indicum [14] = experiment: Phytotoxicity against Sesamum indicum (sesame) plant assessed as stunt in growth at 0.84 kg/ha applied using mixing wheel cultivator (reference value: 0%); format: organism-based; conditions: in vivo, other
Urochloa platyphylla [15] = experiment: Herbicidal activity against Urochloa platyphylla at 0.84 kg/ha applied using mixing wheel cultivator; format: functional
Urochloa platyphylla [16] = experiment: Herbicidal activity against Urochloa platyphylla at 1.12 kg/ha formulated as prowl EC applied using mixing wheel cultivator; format: functional
Sesamum indicum [17] = experiment: Phytotoxicity against Sesamum indicum (sesame) plant assessed as Sesame stand at 1.4 kg/ha formulated as prowl H2O applied using mixing wheel cultivator relative to control; format: organism-based; conditions: in vivo, other
Urochloa platyphylla [18] = experiment: Herbicidal activity against Urochloa platyphylla at 1.12 kg/ha formulated as prowl H2O applied using mixing wheel cultivator; format: functional
Amaranthus tuberculatus [19] = experiment: Herbicidal activity against Amaranthus tuberculatus at 1.4 kg/ha formulated as prowl H2O applied using mixing wheel cultivator; format: functional
Amaranthus tuberculatus [20] = experiment: Herbicidal activity against Amaranthus tuberculatus at 0.84 kg/ha formulated as prowl H2O applied using mixing wheel cultivator; format: functional
Urochloa platyphylla [21] = experiment: Herbicidal activity against Urochloa platyphylla at 0.56 kg/ha formulated as prowl EC applied using mixing wheel cultivator; format: functional
Urochloa platyphylla [22] = experiment: Herbicidal activity against Urochloa platyphylla at 0.84 kg/ha formulated as prowl H2O applied using mixing wheel cultivator; format: functional
Sesamum indicum [23] = experiment: Phytotoxicity against Sesamum indicum (sesame) plant assessed as sesame stand at 2.24 kg/ha formulated as prowl EC applied using mixing wheel cultivator relative to control; format: organism-based; conditions: in vivo
Sesamum indicum [24] = experiment: Phytotoxicity against Sesamum indicum (sesame) plant assessed as yield at 0.56 kg/ha formulated as prowl EC applied using mixing wheel cultivator (reference value: 333 kg/ha); format: organism-based; conditions: in vivo, other
Amaranthus tuberculatus [25] = experiment: Herbicidal activity against Amaranthus tuberculatus at 1.12 kg/ha formulated as prowl EC applied using mixing wheel cultivator; format: functional
Sesamum indicum [26] = experiment: Phytotoxicity against Sesamum indicum (sesame) plant assessed as sesame stand at 1.12 kg/ha formulated as prowl H2O applied using mixing wheel cultivator relative to control; format: organism-based; conditions: in vivo, other
Sesamum indicum [27] = experiment: Phytotoxicity against Sesamum indicum (sesame) plant assessed as stunt in growth at 1.4 kg/ha formulated as prowl H2O applied using mixing wheel cultivator (reference value: 0%); format: organism-based; conditions: in vivo, other
Urochloa platyphylla [28] = experiment: Herbicidal activity against Urochloa platyphylla at 1.4 kg/ha formulated as prowl H2O applied using mixing wheel cultivator; format: functional
Sesamum indicum [29] = experiment: Phytotoxicity against Sesamum indicum (sesame) plant assessed as stunt in growth at 0.84 kg/ha formulated as prowl H2O applied using mixing wheel cultivator (reference value: 0%); format: organism-based; conditions: in vivo, other
Amaranthus tuberculatus [30] = experiment: Herbicidal activity against Amaranthus tuberculatus at 0.56 kg/ha formulated as prowl EC applied using mixing wheel cultivator; format: functional
Sesamum indicum [31] = experiment: Phytotoxicity against Sesamum indicum (sesame) plant assessed as stunt in growth at 2.24 kg/ha formulated as prowl EC applied using mixing wheel cultivator (reference value: 0%); format: organism-based; conditions: in vivo, other
Sesamum indicum [32] = experiment: Phytotoxicity against Sesamum indicum (sesame) plant assessed as yield at 1.4 kg/ha formulated as prowl H2O applied using mixing wheel cultivator (reference value: 333 kg/ha); format: organism-based; conditions: in vivo, other
Sesamum indicum [33] = experiment: Phytotoxicity against Sesamum indicum (sesame) plant assessed as sesame stand at 0.84 kg/ha formulated as prowl H2O applied using mixing wheel cultivator relative to control; format: organism-based; conditions: in vivo, other
Amaranthus tuberculatus [34] = experiment: Herbicidal activity against Amaranthus tuberculatus at 1.12 kg/ha formulated as prowl H2O applied using mixing wheel cultivator; format: functional
Sesamum indicum [35] = experiment: Phytotoxicity against Sesamum indicum (sesame) plant assessed as stunt in growth at 1.12 kg/ha formulated as prowl H2O applied using mixing wheel cultivator (reference value: 0%); format: organism-based; conditions: in vivo, other
Sesamum indicum [36] = experiment: Phytotoxicity against Sesamum indicum (sesame) plant assessed as sesame stand at 1.12 kg/ha formulated as prowl EC applied using mixing wheel cultivator relative to control; format: organism-based; conditions: in vivo, other
Sesamum indicum [37] = experiment: Phytotoxicity against Sesamum indicum (sesame) plant assessed as yield at 0.84 kg/ha formulated as prowl H2O applied using mixing wheel cultivator (reference value: 333 kg/ha); format: organism-based; conditions: in vivo, other
Sesamum indicum [38] = experiment: Phytotoxicity against Sesamum indicum (sesame) plant assessed as stunt in growth at 0.56 kg/ha formulated as prowl EC applied using mixing wheel cultivator (reference value: 0%); format: organism-based; conditions: in vivo, other
Sesamum indicum [39] = experiment: Phytotoxicity against Sesamum indicum (sesame) plant assessed as stunt in growth at 1.12 kg/ha formulated as prowl EC applied using mixing wheel cultivator (reference value: 0%); format: organism-based; conditions: in vivo, other
Sesamum indicum [40] = experiment: Phytotoxicity against Sesamum indicum (sesame) plant assessed as yield at 2.24 kg/ha formulated as prowl EC applied using mixing wheel cultivator (reference value: 333 kg/ha); format: organism-based; conditions: in vivo, other
Urochloa platyphylla [41] = experiment: Herbicidal activity against Urochloa platyphylla at 2.24 kg/ha formulated as prowl EC applied using mixing wheel cultivator; format: functional
Sesamum indicum [42] = experiment: Phytotoxicity against Sesamum indicum (sesame) plant assessed as yield at 1.12 kg/ha formulated as prowl H2O applied using mixing wheel cultivator (reference value: 333 kg/ha); format: organism-based; conditions: in vivo, other
Sesamum indicum [43] = experiment: Phytotoxicity against Sesamum indicum (sesame) plant assessed as sesame stand at 0.56 kg/ha formulated as prowl EC applied using mixing wheel cultivator relative to control; format: organism-based; conditions: in vivo, other
Amaranthus tuberculatus [44] = experiment: Herbicidal activity against Amaranthus tuberculatus at 2.24 kg/ha formulated as prowl EC applied using mixing wheel cultivator; format: functional
Sesamum indicum [45] = experiment: Phytotoxicity against Sesamum indicum (sesame) plant assessed as yield at 1.12 kg/ha formulated as prowl EC applied using mixing wheel cultivator (reference value: 333 kg/ha); format: organism-based; conditions: in vivo, other

SMILES: C=C(C)CN(CC)c1c([N+](=O)[O-])cc(C(F)(F)F)cc1[N+](=O)[O-] [ETHALFLURALIN]
- Crop_yield (Sesamum indicum [1]): 527 kg/ha
- Crop_yield (Sesamum indicum [2]): 428 kg/ha
- Activity (Urochloa platyphylla [3]): 97%
- Activity (Urochloa platyphylla [4]): 69%
- Activity (Sesamum indicum [5]): 52%
- Activity (Sesamum indicum [6]): 78%
- Activity (Sesamum indicum [7]): 95%
- Crop_yield (Sesamum indicum [8]): 143 kg/ha
- Activity (Amaranthus tuberculatus [9]): 82%
- Activity (Sesamum indicum [10]): 4%
- Activity (Amaranthus tuberculatus [11]): 92%
- Activity (Sesamum indicum [12]): 4%
- Activity (Amaranthus tuberculatus [13]): 93%
- Activity (Sesamum indicum [14]): 2%
- Activity (Urochloa platyphylla [15]): 95%

SMILES: CCC(CC)Nc1c([N+](=O)[O-])cc(C)c(C)c1[N+](=O)[O-] [PENDIMETHALIN]
- Activity (Urochloa platyphylla [16]): 83%
- Activity (Sesamum indicum [17]): 38%
- Activity (Urochloa platyphylla [18]): 80%
- Activity (Amaranthus tuberculatus [19]): 83%
- Activity (Amaranthus tuberculatus [20]): 96%
- Activity (Urochloa platyphylla [21]): 63%
- Activity (Urochloa platyphylla [22]): 71%
- Activity (Sesamum indicum [23]): 27%
- Crop_yield (Sesamum indicum [24]): 367 kg/ha
- Activity (Amaranthus tuberculatus [25]): 74%
- Activity (Sesamum indicum [26]): 53%
- Activity (Sesamum indicum [27]): 14%
- Activity (Urochloa platyphylla [28]): 73%
- Activity (Sesamum indicum [29]): 0%
- Activity (Amaranthus tuberculatus [30]): 85%
- Activity (Sesamum indicum [31]): 16%
- Crop_yield (Sesamum indicum [32]): 240 kg/ha
- Activity (Sesamum indicum [33]): 90%
- Activity (Amaranthus tuberculatus [34]): 84%
- Activity (Sesamum indicum [35]): 4%
- Activity (Sesamum indicum [36]): 55%
- Crop_yield (Sesamum indicum [37]): 534 kg/ha
- Activity (Sesamum indicum [38]): 3%
- Activity (Sesamum indicum [39]): 3%
- Crop_yield (Sesamum indicum [40]): 233 kg/ha
- Activity (Urochloa platyphylla [41]): 85%
- Crop_yield (Sesamum indicum [42]): 288 kg/ha
- Activity (Sesamum indicum [43]): 80%
- Activity (Amaranthus tuberculatus [44]): 90%
- Crop_yield (Sesamum indicum [45]): 382 kg/ha

SMILES: CCCN(CCC)c1c([N+](=O)[O-])cc(C(F)(F)F)cc1[N+](=O)[O-] [TRIFLURALIN]
- Crop_yield (Sesamum indicum [1]): 342 kg/ha
- Crop_yield (Sesamum indicum [2]): 587 kg/ha
- Activity (Urochloa platyphylla [3]): 96%
- Activity (Urochloa platyphylla [4]): 86%
- Activity (Sesamum indicum [5]): 67%
- Activity (Sesamum indicum [6]): 76%
- Activity (Sesamum indicum [7]): 99%
- Crop_yield (Sesamum indicum [8]): 406 kg/ha
- Activity (Amaranthus tuberculatus [9]): 90%
- Activity (Sesamum indicum [10]): 0%
- Activity (Amaranthus tuberculatus [11]): 85%
- Activity (Sesamum indicum [12]): 4%
- Activity (Amaranthus tuberculatus [13]): 92%
- Activity (Sesamum indicum [14]): 2%
- Activity (Urochloa platyphylla [15]): 91%
